Test results from PMC11974249 (Drug metabolism and pharmacokinetics, 2024).

Assays:
[1] = system: arecoline hydrolase activity in HLM; experiment: Reaction phenotyping with esterase inhibitors in HLM; format: biochemical, human; conditions: HLM 0.2 mg/ml, arecoline 25 μM, 15 min; loperamide 1 μM, digitonin 20 μM, ethanol 41 mM, BNPP 10 μM, BW284c51 25 μM, ethopropazine 1 μM, vinblastine 10 μM
[2] = system: arecoline hydrolase activity in HLC; experiment: Reaction phenotyping with esterase inhibitors in HLC; format: biochemical, human; conditions: HLC 0.2 mg/ml, arecoline 25 μM, 15 min; inhibitor concentrations as in HLM
[3] = Enzyme kinetics of hydrolysis; format: in vitro ADME, human; conditions: for EH: hepatic extraction ratio; for ClH: well-stirred model, Q 21 ml/min/kg; for Km at 15 min / CLint scaled / microsomal CLint: both, human, pH 7.4; for Km at 15 min: human liver microsomes (pooled); for CLint scaled / microsomal CLint: human liver microsomes
[4] = Enzyme kinetics of hydrolysis; format: in vitro ADME, human; conditions: for Vmax: HLC 0.2 mg/ml, 15 min, 37 °C, rate of carboxylate metabolite formation; for Km at 15 min / CLint scaled / microsomal CLint: both, human, pH 7.4; for Km at 15 min: human liver cytosol (pooled); for CLint scaled / microsomal CLint: human liver cytosol
[5] = Depletion of parent compound over 90 min in fresh or thermally-inactivated HLM; format: in vitro ADME, human; conditions: for parent level remaining: at 90 min
[6] = Depletion of parent compound over 90 min in fresh or thermally-inactivated HLC; format: in vitro ADME, human
[7] = Fraction unbound to plasma proteins by ultrafiltration; format: in vitro ADME; conditions: plasma protein in sodium phosphate buffer, pH 7.4
plasma proteins = experiment: as above; format: in vitro ADME; conditions: from fu.p
[8] = Arecoline hydrolysis in human intestinal microsomes and cytosol; format: in vitro ADME
human recombinant CES1 = molecular target: T1, human recombinant CES1 (Homo sapiens, UniProt P23141); experiment: Arecoline hydrolysis by human recombinant CES1; format: in vitro ADME; conditions: 5–40 min, CES protein 0.1–0.4 mg/ml
T1 sequence (P23141 18-567): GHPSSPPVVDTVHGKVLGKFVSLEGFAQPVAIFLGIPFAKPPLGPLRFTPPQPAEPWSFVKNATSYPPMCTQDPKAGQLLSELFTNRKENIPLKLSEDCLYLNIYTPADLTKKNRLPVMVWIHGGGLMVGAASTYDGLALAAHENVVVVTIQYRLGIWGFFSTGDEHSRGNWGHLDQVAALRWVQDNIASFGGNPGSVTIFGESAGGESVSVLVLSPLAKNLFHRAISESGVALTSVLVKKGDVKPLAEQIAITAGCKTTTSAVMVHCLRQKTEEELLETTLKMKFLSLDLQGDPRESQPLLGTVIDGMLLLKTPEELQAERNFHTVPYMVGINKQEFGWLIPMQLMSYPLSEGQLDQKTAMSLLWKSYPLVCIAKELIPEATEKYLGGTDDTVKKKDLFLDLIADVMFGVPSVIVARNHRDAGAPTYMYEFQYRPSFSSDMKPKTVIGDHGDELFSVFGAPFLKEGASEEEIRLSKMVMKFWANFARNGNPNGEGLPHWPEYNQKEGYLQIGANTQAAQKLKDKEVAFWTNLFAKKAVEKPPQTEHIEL

human recombinant CES2 = molecular target: T2, human recombinant CES2 (Homo sapiens, UniProt O00748); experiment: Arecoline hydrolysis by human recombinant CES2; format: in vitro ADME; conditions: 5–40 min, CES protein 0.1–0.4 mg/ml
T2 sequence (O00748 27-559): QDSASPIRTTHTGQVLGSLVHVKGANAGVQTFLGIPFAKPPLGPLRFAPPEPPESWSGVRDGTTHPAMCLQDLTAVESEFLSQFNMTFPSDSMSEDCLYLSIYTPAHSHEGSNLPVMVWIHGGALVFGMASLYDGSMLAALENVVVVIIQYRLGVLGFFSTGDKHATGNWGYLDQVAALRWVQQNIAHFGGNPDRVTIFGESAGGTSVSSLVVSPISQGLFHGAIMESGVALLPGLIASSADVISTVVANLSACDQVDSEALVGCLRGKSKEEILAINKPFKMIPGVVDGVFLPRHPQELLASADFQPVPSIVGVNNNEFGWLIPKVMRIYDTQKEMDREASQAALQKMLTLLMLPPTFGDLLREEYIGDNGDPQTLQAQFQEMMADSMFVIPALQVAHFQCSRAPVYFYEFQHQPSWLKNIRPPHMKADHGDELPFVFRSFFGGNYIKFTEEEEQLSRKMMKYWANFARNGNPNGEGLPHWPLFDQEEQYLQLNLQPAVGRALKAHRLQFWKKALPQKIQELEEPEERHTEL

[9] = subjects with Alzheimer's disease treated with arecoline; cited from earlier work
[10] = mouse liver homogenate, cited from earlier work
[11] = both, human, human liver microsomes, pH 7.4
[12] = both, human, human liver cytosol, pH 7.4

CC[C@]1(O)C[C@@H]2CN(CCc3c([nH]c4ccccc34)[C@@](C(=O)OC)(c3cc4c(cc3OC)N(C)[C@H]3[C@@](O)(C(=O)OC)[C@H](OC(C)=O)[C@]5(CC)C=CCN6CC[C@]43[C@@H]65)C2)C1 [vinblastine]
percent activity of arecaidine formation compared to control [1]: 100% | change in mean percent activity of arecoline hydrolase compared to control [2]: no significant change

CCN(CC)C(C)CN1c2ccccc2Sc2ccccc21 (centres unmarked) [ethopropazine]
percent activity of arecaidine formation compared to control [1]: 102% | change in mean percent activity of arecoline hydrolase compared to control [2]: no significant change

C[C@@H]1CC[C@@]2(OC1)O[C@H]1[C@@H](O)[C@H]3[C@@H]4CC[C@H]5C[C@@H](O[C@@H]6O[C@H](CO)[C@H](O[C@@H]7O[C@H](CO)[C@@H](O)[C@H](O[C@@H]8OC[C@@H](O)[C@H](O)[C@H]8O)[C@H]7O[C@@H]7O[C@H](CO)[C@H](O)[C@H](O[C@@H]8O[C@H](CO)[C@@H](O)[C@H](O)[C@H]8O)[C@H]7O)[C@H](O)[C@H]6O)[C@H](O)C[C@]5(C)[C@H]4CC[C@]3(C)[C@H]1[C@@H]2C [digitonin]
percent activity of arecaidine formation compared to control [1]: 70% | change in mean percent activity of arecoline hydrolase compared to control [2]: significant reductions

C=CC[N+](C)(C)c1ccc(CCC(=O)CCc2ccc([N+](C)(C)CC=C)cc2)cc1.[Br-].[Br-] [BW284c51, 1,5-Bis(4-allyldimethylammoniumphenyl)pentan-3-one dibromide]
percent activity of arecaidine formation compared to control [1]: 103% | change in mean percent activity of arecoline hydrolase compared to control [2]: no significant change

CN(C)C(=O)C(CCN1CCC(O)(c2ccc(Cl)cc2)CC1)(c1ccccc1)c1ccccc1 [loperamide]
percent activity of arecaidine formation compared to control [1]: 100.2% | change in mean percent activity of arecoline hydrolase compared to control [2]: no significant change

COC(=O)C1=CCCN(C)C1 [arecoline]
EH ([3]; HLM): 0.733 | ClH ([3]; HLM): 15.4 mL/min/kg | Km at 15 min [3]: 8.68 mM | CLint scaled [3]: 57.8 mL/min/kg | microsomal CLint [3]: 90.3 µL/min/mg | extraction ratio class ([3]; from EH in HLM): high (> 0.7) | Vmax [4]: 118 nmol/min/mg protein | Km at 15 min [4]: 9.11 mM | CLint scaled [4]: 11.6 mL/min/kg | microsomal CLint [4]: 12.9 µL/min/mg | parent level remaining ([5]; HLM): 5.6 % control | half-life at 10 μM [5, 11]: 15.7 min | half-life at 100 μM [5, 11]: 16.6 min | half-life at 1000 μM [5, 11]: 17.2 min | arecoline concentration remaining in HLC samples compared to HLM samples ([6]; at 90 min, initial arecoline 10 μM): approximately 12.8 fold | half-life at 10 μM [6, 12]: 97 min | half-life at 100 μM [6, 12]: 99.8 min | half-life at 1000 μM [6, 12]: 126 min | fraction unbound at 15 min [7]: 0.978 | amount available for distribution to peripheral tissues (plasma proteins): ~ 98% | amount predicted to bind plasma proteins (plasma proteins): ~ 2% | arecoline hydrolysis in intestinal sub-cellular fractions [8]: no arecoline hydrolysis | hydrolysis by CES1 (human recombinant CES1): sub-stantial hydrolysis | hydrolysis by CES2 (human recombinant CES2): no hydrolysis | average elimination T1/2 in plasma [9]: 10.5 min | depletion ([10]; 30 min incubation): ~100% | maximum rate of arecoline depletion [10]: 4.7 nmol/min/mg protein

COC(=O)C1=CCCNC1 [guvacoline]
ClH less compared to arecoline ([3]; HLM): 96% | Clint.invivo less compared to arecoline ([3]; HLM): 99% | EH less compared to arecoline ([3]; HLM): 96% | Vmax less compared to arecoline ([3]; HLM): 96% | Vmax ([3]; HLM 0.2 mg/ml, 15 min, 37 °C, rate of carboxylate metabolite formation): 35 nmol/min/mg protein | EH ([3]; HLM): 0.0306 | ClH ([3]; HLM): 0.643 mL/min/kg | Km at 15 min [3]: 34.3 mM | CLint scaled [3]: 0.654 mL/min/kg | microsomal CLint [3]: 1.02 µL/min/mg | Vmax [4]: 14.4 nmol/min/mg protein | Km at 15 min [4]: 27.8 mM | CLint scaled [4]: 0.466 mL/min/kg | microsomal CLint [4]: 0.518 µL/min/mg | depletion over time ([5]; HLM, all concentrations (0.01, 0.1, 1.0 mM), 90 min): only minimal depletion | parent level remaining ([5]; HLM): 98 % control | depletion over time ([6]; HLC, all tested concentrations, data not shown): only minimal depletion | fraction unbound at 15 min [7]: 0.998

CCO [ethanol]
percent activity of arecaidine formation compared to control [1]: 44.6% | change in mean percent activity of arecoline hydrolase compared to control [2]: significant reductions

O=[N+]([O-])c1ccc(OP(=O)(O)Oc2ccc([N+](=O)[O-])cc2)cc1 [BNPP, bis(4-nitrophenyl)-phosphate]
percent activity of arecaidine formation compared to control [1]: 14.4% | change in mean percent activity of arecoline hydrolase compared to control [2]: significant reductions
